Test results: ChEMBL document CHEMBL1201862, “PubChem BioAssay data set” (2004)
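Protocol summary: plate cells (96-well), add compound at 5 concentrations, incubate 48 h, interpolate endpoints linearly. Here, GI50 denotes the concentration required for 50% inhibition of growth.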 The source made the active and inactive calls. No stated cut-off is given here; in the data, active = GI50 up to about 1.1 µM and inactive = higher.

What was measured:
Experiment in all cases: growth of human tumour cells (NCI), 48 h
COLO 205 = test system: COLO 205
IGROV-1 = test system: IGROV-1
CAKI-1 = test system: CAKI-1
SN12C = test system: SN12C
LOX IMVI = test system: LOX IMVI
RXF 393 = test system: RXF 393
NCI-H522 = test system: NCI-H522
K562 = test system: K562
KM12 = test system: KM12
DU-145 = test system: DU-145
SNB-19 = test system: SNB-19
SF-268 = test system: SF-268
BT-549 = test system: BT-549
OVCAR-5 = test system: OVCAR-5
HOP-62 = test system: HOP-62
HCT-15 = test system: HCT-15
MDA-MB-435 = test system: MDA-MB-435
A549 = test system: A549
OVCAR-3 = test system: OVCAR-3
HT-29 = test system: HT-29

Measured: GI50

C#CCOC(=O)c1ccccc1O
> 100 µM: HCT-15
inactive: COLO 205 > 100 µM | IGROV-1 > 100 µM | CAKI-1 > 100 µM | SN12C > 100 µM | LOX IMVI > 100 µM | RXF 393 > 100 µM | NCI-H522 > 100 µM | K562 > 100 µM | KM12 > 100 µM | DU-145 > 100 µM | SNB-19 > 100 µM | SF-268 > 100 µM | BT-549 > 100 µM | OVCAR-5 > 100 µM | HOP-62 > 100 µM | MDA-MB-435 > 100 µM

CCOC(=O)c1c(C)nc2c3ccccc3c(C#N)c(C)n12
inactive: IGROV-1 23 µM | CAKI-1 79.3 µM | SN12C > 100 µM | LOX IMVI > 100 µM | RXF 393 33.4 µM | NCI-H522 23 µM | A549 50.1 µM | K562 > 100 µM | KM12 > 100 µM | DU-145 74.8 µM | OVCAR-3 > 100 µM | SNB-19 > 100 µM | BT-549 > 100 µM | OVCAR-5 88.7 µM | HOP-62 26.2 µM | MDA-MB-435 > 100 µM
> 100 µM: HCT-15

COc1ccc(/C=C2\N=C(N3CCOCC3)NC2=O)cc1
inactive: COLO 205 > 100 µM | IGROV-1 > 100 µM | CAKI-1 > 100 µM | HT-29 > 100 µM | SN12C > 100 µM | LOX IMVI > 100 µM | RXF 393 > 100 µM | NCI-H522 > 100 µM | A549 > 100 µM | KM12 > 100 µM | DU-145 > 100 µM | OVCAR-3 > 100 µM | SNB-19 > 100 µM | SF-268 > 100 µM | BT-549 > 100 µM | OVCAR-5 > 100 µM | HOP-62 > 100 µM | MDA-MB-435 > 100 µM
> 100 µM: HCT-15

COc1ccc(C2CC(c3c(C)nn(-c4ccccc4)c3-c3ccc(C)cc3O)=NN2c2ccccc2)cc1 (stereo unspecified)
inactive: COLO 205 12.7 µM | IGROV-1 49.3 µM | CAKI-1 38.9 µM | SN12C > 100 µM | LOX IMVI > 30.1 µM | RXF 393 8.13 µM | NCI-H522 24.8 µM | A549 4.35 µM | K562 7.13 µM | KM12 3.33 µM | DU-145 > 79.3 µM | OVCAR-3 > 50.5 µM | SNB-19 > 29 µM | SF-268 > 73.6 µM | BT-549 55.3 µM | OVCAR-5 > 35.1 µM | HOP-62 > 100 µM | MDA-MB-435 15 µM
7.71 µM: HCT-15

CC(C)=C[C@H]1C[C@H](C)[C@H]2CC[C@H](C)c3c2c1c(C)c1ncoc31
inactive: COLO 205 16.7 µM | IGROV-1 13.9 µM | CAKI-1 18.7 µM | SN12C 19.5 µM | LOX IMVI 20.1 µM | RXF 393 11.9 µM | NCI-H522 16 µM | A549 14.9 µM | K562 21.4 µM | KM12 17.7 µM | DU-145 18 µM | OVCAR-3 15.1 µM | SNB-19 14.6 µM | SF-268 19.5 µM | BT-549 21.1 µM | OVCAR-5 16 µM | MDA-MB-435 17.8 µM
19.1 µM: HCT-15

CN(C)CCn1nc(N)c2nc3cc(C(F)(F)F)ccc3nc21
67.3 µM: HCT-15
inactive: COLO 205 27.7 µM | IGROV-1 41.5 µM | CAKI-1 90.2 µM | HT-29 > 100 µM | SN12C > 100 µM | LOX IMVI 54.8 µM | RXF 393 26.4 µM | NCI-H522 42 µM | A549 58.2 µM | K562 > 100 µM | KM12 > 100 µM | DU-145 54.8 µM | SNB-19 > 100 µM | SF-268 94.6 µM | BT-549 99.8 µM | OVCAR-5 > 100 µM | HOP-62 57.4 µM | MDA-MB-435 > 100 µM

COC(=O)C1(NC(=O)C(CC(=O)OCc2ccccc2)NC(=O)OCc2ccccc2)CCCCCC1 (stereo unspecified)
inactive: COLO 205 21.1 µM | IGROV-1 37.6 µM | CAKI-1 20.8 µM | HT-29 22 µM | LOX IMVI 24.8 µM | RXF 393 55 µM | NCI-H522 69.3 µM | A549 32.8 µM | K562 23.2 µM | KM12 50.1 µM | DU-145 66.5 µM | OVCAR-3 26.1 µM | SNB-19 51.8 µM | SF-268 42 µM | BT-549 17.4 µM | OVCAR-5 39.2 µM | HOP-62 10.1 µM | MDA-MB-435 28.8 µM
38.1 µM: HCT-15

CCCCCCc1cc2cc(C(=O)Nc3ccccc3)c(=N)oc2cc1O
inactive: COLO 205 38.4 µM | IGROV-1 2.92 µM | CAKI-1 4.58 µM | HT-29 3.28 µM | SN12C 2.42 µM | LOX IMVI 3.23 µM | RXF 393 5.56 µM | NCI-H522 1.94 µM | A549 3.27 µM | KM12 2.51 µM | DU-145 4.82 µM | OVCAR-3 2.09 µM | SNB-19 3.33 µM | SF-268 4.85 µM | BT-549 9.25 µM | OVCAR-5 > 83.6 µM | HOP-62 2.76 µM | MDA-MB-435 3.53 µM
3.45 µM: HCT-15

COc1ccc(/C=C2\C(=O)N(C)C(=O)c3cc(OC)c(OC)cc32)cc1OC
30.8 µM: HCT-15
inactive: COLO 205 16.4 µM | IGROV-1 29.2 µM | CAKI-1 13.4 µM | HT-29 9.06 µM | SN12C 32.8 µM | LOX IMVI 16 µM | RXF 393 23.6 µM | NCI-H522 15.7 µM | A549 65.6 µM | K562 28.2 µM | DU-145 25.3 µM | OVCAR-3 37.4 µM | SNB-19 43.3 µM | BT-549 17.6 µM | OVCAR-5 48.9 µM | HOP-62 29.9 µM | MDA-MB-435 34.5 µM

Cc1c(C#N)c2ccccc2c2nc3ccccc3n12
inactive: IGROV-1 31.9 µM | CAKI-1 67.9 µM | SN12C 63.2 µM | LOX IMVI 34.4 µM | RXF 393 > 100 µM | NCI-H522 16.4 µM | A549 93.1 µM | K562 > 100 µM | KM12 > 100 µM | DU-145 43.2 µM | OVCAR-3 > 100 µM | SNB-19 > 100 µM | BT-549 > 100 µM | OVCAR-5 > 100 µM | HOP-62 75.5 µM | MDA-MB-435 > 100 µM
> 100 µM: HCT-15

CC(=O)c1c2n(n(-c3ccccc3)c1=O)C(=O)c1nccnc1-2
> 100 µM: HCT-15
inactive: COLO 205 > 100 µM | IGROV-1 > 100 µM | CAKI-1 > 100 µM | HT-29 > 100 µM | SN12C > 100 µM | LOX IMVI > 100 µM | RXF 393 > 100 µM | NCI-H522 > 100 µM | A549 > 100 µM | K562 > 100 µM | KM12 > 100 µM | DU-145 > 100 µM | OVCAR-3 > 100 µM | SNB-19 > 100 µM | SF-268 > 100 µM | BT-549 > 100 µM | OVCAR-5 > 100 µM | MDA-MB-435 > 100 µM
